Assays:
mouse antiserum = assay: ic-ELISA serum titer and inhibition rate of mice for the fusion experiment (Table S2); type: binding; details: prometryn 1000 ng/mL
Procedure: The Institute of Quality Standards and Testing Technology for Agro-Products’ Experimental Animal Welfare and Ethical Committee (IQSTAP-2021-05) approved the use of animals in experiments. The buffer solution (0.01 M PBS, pH = 7.4) was used to dilute the immunogen (2 mg/mL) to 1 mg/mL. After that, Freund’s adjuvant was added to an identical volume of 0.1 mL in a sterile glass vial. The mixture was placed on a magnetic stirrer and stirred and mixed rapidly in an ice bath to fully emulsify. Six 7-week-old female BALB/c mice were selected for immunization. At the beginning of the third immunization, 3–5 days after each immunization, blood was taken from the orbit, incubated at 37 °C for 0.5 h and 4 °C for 2 h, and centrifuged at 1000 r/min for 10 min. Serum was collected, and the serum titer was determined. The immune strategy of mice was the same as that previously reported. Freund’s […] vaccination, and for the subsequent booster vaccination, Freund’s incomplete adjuvant was utilized. Freund’s adjuvant and immunogen during immunization should be 1:1 and thoroughly mixed until dripping into the water to prevent diffusion. The interval of booster immunization was 2 weeks, and the immune dose was 0.1 mg. Three days before fusion, the mice with the best performance were immunized with a dose of 0.05 mg. The mice were intraperitoneally injected without adjuvant.
(§1) The ic-ELISA method was used to screen the best-performing fusion mouse sera. They were used to establish the standard curve of antibodies by detecting the supernatant of positive cells. The buffer required for ic-ELISA was the same as previously reported. The specific steps of the operation are as follows: (1) The coated antigen was added to the microplate by diluting it with the required coating solutions (CBS, pH 9.6, 0.05 mol/L). Each well contained 100 µL, which was incubated at 37 °C for three h before being washed three times with washing buffer (PBST, PBS containing 0.1% Tween-20). (2) With sample dilution buffer (PBSTG, PBST containing 0.1% gelatin), the standard prometryn sample and the antiserum/antibody from mice were diluted to the required concentration. The microplate was incubated for 30 min at 37 °C with 50 µL of diluted antiserum or antibody and standard samples of various concentrations. PBST was used three times to wash the dishes. (3) Then, 100 µL of PBSTG-diluent IgG HRP (labeled goat anti-mouse IgG with HRP) was added to each well. After 30 min at 37 °C, the plate was cleaned three times with PBST. (4) Each well was incubated for 15 min in the dark at 25 °C with 100 µL of TMB color developing solution. To stop the reaction, 50 µL of the hydrochloric acid solution was added to each well. The absorbance at OD450 nm was measured with a TECAN Infinite M200 PRO microplate reader from Männedorf, Switzerland.
Ic-ELISA was used to measure the inhibition rate and serum titer of six immunized mice. Three days before cell fusion, Balb/c mice with the highest performance were selected and immunized. SP2/0 myeloma cells and mouse spleen cells were combined for fusion. After fusion, the supernatant of hybridoma cells was determined by indirect competitive enzyme-linked immunosorbent assay, the positive wells were screened, and the hybridoma cells were cloned to obtain hybridoma cell lines that can stably secrete monoclonal antibodies against prometryn. After the positive cell lines were expanded and cultured, mice treated with paraffin 7 days earlier were injected intraperitoneally. Ascites were collected after abdominal swelling and centrifuged at 4 °C at 1000 rpm, and the potency and inhibition rate of ascites were determined and frozen at −20 °C for purification. The 7D4 mAb against prometryn was obtained by purifying the […] with the octanoic acid-saturated ammonium sulfate method. […]

[1] = tested on: 7D4 mAb (mouse monoclonal anti-prometryn antibody); assay: ic-ELISA cross-reactivity of the 7D4 mAb with triazines; type: binding; details: for Cross-Reactivity: relative to prometryn = 100%
Procedure: as §1
The ic-ELISA method was used to determine the ideal antibody and antigen mix. The coating antigen and antibody concentration used in the experiment was 1 mg/mL. The dilution multiples of the coating were 1 × 10^3, 2 × 10^3, 4 × 10^3, and 8 × 10^3. The prometryn standard was 1000 ng/mL. The best concentration combination of antigen and antibody was selected to establish the standard curve of the antibody. Prometryn standards were diluted to 1000, 500, 250, 125, 62.5, 31.25, 15.625, 7.8125, 3.90625, and 0 ng/mL, with PBSTG for subsequent ic-ELISA experiments. The standard curve was determined by ic-ELISA. […] Each measured OD value in the curve is the average of three independent repeats. The 7D4 mAb’s inhibition rate was well linearly correlated with the prometryn concentration. […] The 7D4 mAb type was identified as IgG1 using a mouse antibody isotyping kit from Sigma®, St. Louis, MO, USA.
Eleven triazine herbicides were selected to determine their cross-reactivity with 7D4 mAb. […] The cross-reaction rate with the other seven triazines was less than 1%. The hybridoma cell line 7D4 screened in this study can specifically recognize prometryn. […] The cross-reaction rate may vary depending on the immunoassay format and the competitive hapten preparation used.

CSc1nc(NC(C)C)nc(NC(C)C)n1 [Prometryn, 2-methylthio-4,6-di(isopropylamino)-1,3,5-triazobenzene]
IR (inhibition rate) (mouse antiserum; dilution of immunogen 1×103, serum dilution 1.28×105): -7.66% | IR (inhibition rate) (mouse antiserum; dilution of immunogen 1×103, serum dilution 1.6×104): 65.86% | IR (inhibition rate) (mouse antiserum; dilution of immunogen 1×103, serum dilution 2×103): 85.70% | IR (inhibition rate) (mouse antiserum; dilution of immunogen 1×103, serum dilution 2.56×105): 75.15% | IR (inhibition rate) (mouse antiserum; dilution of immunogen 1×103, serum dilution 3.2×104): 46.44% | IR (inhibition rate) (mouse antiserum; dilution of immunogen 1×103, serum dilution 4×103): 88.04% | IR (inhibition rate) (mouse antiserum; dilution of immunogen 1×103, serum dilution 6.4×104): 35.52% | IR (inhibition rate) (mouse antiserum; dilution of immunogen 1×103, serum dilution 8×103): 81.46% | IR (inhibition rate) (mouse antiserum; dilution of immunogen 1.6×104, serum dilution 1.28×105): -52.80% | IR (inhibition rate) (mouse antiserum; dilution of immunogen 1.6×104, serum dilution 1.6×104): 58.64% | IR (inhibition rate) (mouse antiserum; dilution of immunogen 1.6×104, serum dilution 2×103): 85.05% | IR (inhibition rate) (mouse antiserum; dilution of immunogen 1.6×104, serum dilution 2.56×105): 71.56% | IR (inhibition rate) (mouse antiserum; dilution of immunogen 1.6×104, serum dilution 3.2×104): 28.55% | IR (inhibition rate) (mouse antiserum; dilution of immunogen 1.6×104, serum dilution 4×103): 82.62% | IR (inhibition rate) (mouse antiserum; dilution of immunogen 1.6×104, serum dilution 6.4×104): 11.18% | IR (inhibition rate) (mouse antiserum; dilution of immunogen 1.6×104, serum dilution 8×103): 81.51% | IR (inhibition rate) (mouse antiserum; dilution of immunogen 2×103, serum dilution 1.28×105): 14.21% | IR (inhibition rate) (mouse antiserum; dilution of immunogen 2×103, serum dilution 1.6×104): 61.99% | IR (inhibition rate) (mouse antiserum; dilution of immunogen 2×103, serum dilution 2×103): 85.14% | IR (inhibition rate) (mouse antiserum; dilution of immunogen 2×103, serum dilution 2.56×105): 74.90% | IR (inhibition rate) (mouse antiserum; dilution of immunogen 2×103, serum dilution 3.2×104): 51.64% | IR (inhibition rate) (mouse antiserum; dilution of immunogen 2×103, serum dilution 4×103): 86.95% | IR (inhibition rate) (mouse antiserum; dilution of immunogen 2×103, serum dilution 6.4×104): 10.11% | IR (inhibition rate) (mouse antiserum; dilution of immunogen 2×103, serum dilution 8×103): 79.58% | IR (inhibition rate) (mouse antiserum; dilution of immunogen 3.2×104, serum dilution 1.28×105): 17.80% | IR (inhibition rate) (mouse antiserum; dilution of immunogen 3.2×104, serum dilution 1.6×104): 74.44% | IR (inhibition rate) (mouse antiserum; dilution of immunogen 3.2×104, serum dilution 2×103): 84.75% | IR (inhibition rate) (mouse antiserum; dilution of immunogen 3.2×104, serum dilution 2.56×105): 72.21% | IR (inhibition rate) (mouse antiserum; dilution of immunogen 3.2×104, serum dilution 3.2×104): 51.77% | IR (inhibition rate) (mouse antiserum; dilution of immunogen 3.2×104, serum dilution 4×103): 68.48% | IR (inhibition rate) (mouse antiserum; dilution of immunogen 3.2×104, serum dilution 6.4×104): 28.68% | IR (inhibition rate) (mouse antiserum; dilution of immunogen 3.2×104, serum dilution 8×103): 80.75% | IR (inhibition rate) (mouse antiserum; dilution of immunogen 4×103, serum dilution 1.28×105): 7.62% | IR (inhibition rate) (mouse antiserum; dilution of immunogen 4×103, serum dilution 1.6×104): 63.91% | IR (inhibition rate) (mouse antiserum; dilution of immunogen 4×103, serum dilution 2×103): 86.78% | IR (inhibition rate) (mouse antiserum; dilution of immunogen 4×103, serum dilution 2.56×105): 78.43% | IR (inhibition rate) (mouse antiserum; dilution of immunogen 4×103, serum dilution 3.2×104): 47.70% | IR (inhibition rate) (mouse antiserum; dilution of immunogen 4×103, serum dilution 4×103): 87.39% | IR (inhibition rate) (mouse antiserum; dilution of immunogen 4×103, serum dilution 6.4×104): 24.90% | IR (inhibition rate) (mouse antiserum; dilution of immunogen 4×103, serum dilution 8×103): 81.74% | IR (inhibition rate) (mouse antiserum; dilution of immunogen 8×103, serum dilution 1.28×105): 7.17% | IR (inhibition rate) (mouse antiserum; dilution of immunogen 8×103, serum dilution 1.6×104): 58.20% | IR (inhibition rate) (mouse antiserum; dilution of immunogen 8×103, serum dilution 2×103): 87.26% | IR (inhibition rate) (mouse antiserum; dilution of immunogen 8×103, serum dilution 2.56×105): 59.68% | IR (inhibition rate) (mouse antiserum; dilution of immunogen 8×103, serum dilution 3.2×104): 15.68% | IR (inhibition rate) (mouse antiserum; dilution of immunogen 8×103, serum dilution 4×103): 84.15% | IR (inhibition rate) (mouse antiserum; dilution of immunogen 8×103, serum dilution 6.4×104): 7.82% | IR (inhibition rate) (mouse antiserum; dilution of immunogen 8×103, serum dilution 8×103): 76.22% | IC50 ([1]; ic-ELISA, analyte 1000-15.625 and 0 ng/mL): 3.901 ng/mL | Cross-Reactivity [1]: 100% | Cross-Reactivity ([1]; listed as prometryn): 100%

Reference: paper PMC9855386, “Obtaining a Monoclonal Antibody against a Novel Prometryn-Like Hapten and Characterization of Its Selectivity for Triazine Herbicides” (Biosensors, 2022)
